According to ChEMBL document CHEMBL5321229, “Conformationally locked sugar derivatives and analogues as potential neuraminidase inhibitors” (Eur J Med Chem, 2023):

Target: Neuraminidase (Influenza A virus (A/Memphis/1/1971(H3N2)), UniProt P03471, E119V)
Assay: Inhibition of influenza A virus H3N2 (A/Moscow/10/99) harboring E119V mutant neuraminidase using MUNANA as substrate preincubated for 30 mins followed by substrate addition by fluorescence-based assay

## CCC(CC)O[C@@H]1C=C(C(=O)O)C[C@H](n2nncc2-c2cccc(N)c2)[C@H]1NC(C)=O
  IC50: 790 nM
